According to patent publication US7320878B2, “Protease assay for therapeutic drug monitoring” (Tibotec Pharmaceuticals, Ltd., priority 2001, dated 2008):

Key:
[1] = test system: α-acid glycoprotein (AAG); assay: Binding constant (Ka) of the drug to alpha-acid glycoprotein; parameters: species or system human
[2] = test system: normal human serum proteins; details: 5 min, 1 μM
Procedure: To one part of serum sample two parts of MeOH were added, mixed and centrifuged at 16,100 g for 30 min. The supernatant was recovered and can be stored for at least 2 weeks at −20° C. prior to assay. 60 μl is used for the cuvette assay or 24 μl is used for the plate reader assay. Six serial dilutions 1:2 to 1:120 of the extracts, obtained from analyte samples were prepared prior to assay. Methanol extract of normal dog serum without inhibitor was used for the dilution.
For the plate reader assay, the following conditions were used: The buffer was prepared of 50 mM Sodium acetate (NaOAc), pH 4.5, 2 mM dithiothreitol (DTT), 20 mM Sodium Chloride (NaCl), 0.01% Tween 20. The substrate was present at a final concentration of 20 μM in the above buffer. The substrate used is based on a natural substrate for HIV protease. It contains a portion (P4-P4′) of the p17-p24 gag protein. […] The enzyme, wild type HIV-1 protease, was present in the above buffer (50 mM NaOAc, pH4.5, 2 mM DTT, 200 mM NaCl), 0.01% Tween 20) at a final concentration of 4-5 nM. It should be appreciated that other forms of HIV protease can be used as well, including mutant forms of the protease.
The assay is performed at room temperature (RT). […] The reaction was started by adding 88 μl buffer containing substrate and the increase of fluorescence was monitored over time (FIG. 2). […]

[3] = test system: plasma protein; details: cited from earlier work

Structure (SMILES): CC(C)(C)NC(=O)[C@@H]1CN(Cc2cccnc2)CCN1C[C@@H](O)C[C@@H](Cc1ccccc1)C(=O)N[C@H]1c2ccccc2C[C@H]1O [IDV, indinavir]
- Ka for AAG binding [1]: No binding

Structure (SMILES): CC(C)CN(C[C@@H](O)[C@H](Cc1ccccc1)NC(=O)[C@H](CC(N)=O)NC(=O)c1ccc2ccccc2n1)C(=O)NC(C)(C)C [SC-52151]
- Ka for AAG binding [1]: 2.3 10^6 M^−1
- Free/total drug ratio (%), percentage of HIV protease inhibitor in sample not bound to proteins [2]: 10.5%

Structure (SMILES): CC(C)(C)NC(=O)[C@@H]1C[C@@H]2CCCC[C@@H]2CN1C[C@@H](O)[C@H](Cc1ccccc1)NC(=O)[C@H](CC(N)=O)NC(=O)c1ccc2ccccc2n1 [saquinavir]
- plasma protein bound [3]: 90-99%
